How the values were obtained:
morningglory = assay: Test A preemergence; type: in vivo, Ipomoea spp.; conditions: Ipomoea, pre-emergence, 240 h, 0 to 100 scale (0 no effect, 100 complete control), read-out: Plant response rating, Morningglory; for pest or weed control at 125 g/ha: 125 g ai/ha; for pest or weed control at 500 g/ha: 500 g ai/ha, approx. 10 d
How it was run: (§1)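 For preemergence, seeds were sown in a loam soil-sand blend and given a directed soil spray of test chemical in a non-phytotoxic solvent mixture with surfactant. For postemergence, plants in pots of the same blend were sprayed with the same formulation at the one- to two-leaf stage, 2 to 10 cm tall.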

crabgrass, large = assay: Test A postemergence; type: in vivo, Digitaria sanguinalis; conditions: Digitaria sanguinalis, post-emergence, 240 h, 0 to 100 scale (0 no effect, 100 complete control), approx. 10 d, read-out: Plant response rating, Crabgrass, Large; for pest or weed control at 125 g/ha: 125 g ai/ha; for pest or weed control at 500 g/ha: 500 g ai/ha
How it was run: as §1

blackgrass = assay: Test D preemergence; type: in vivo, Alopecurus myosuroides; conditions: for Plant response rating: Blackgrass: scale 0 to 100
Excerpt: (§2) Seeds of plant species selected from bluegrass (annual bluegrass, Poa annua), blackgrass (Alopecurus myosuroides), canarygrass (Phalaris minor), chickweed (common chickweed, Stellaria media), galium (catchweed bedstraw, Galium aparine), bromegrass, down (downy bromegrass, Bromus tectorum), Russian thistle (Salsola kali), field poppy (Papaver rhoeas), field violet (Viola arvensis), foxtail, green (green foxtail, Setaria viridis), deadnettle (henbit deadnettle, Lamium amplexicaule), ryegrass, Ital. (Italian ryegrass, Lolium multiflorum), kochia (Kochia scoparia), lambsquarters (Chenopodium album), oilseed rape (Brassica napus), pigweed (Amaranthus retroflexus), chamomile (scentless chamomile, Matricaria inodora), speedwell (bird's-eye speedwell, Veronica persica), barley, spring (spring barley, Hordeum vulgare), wheat, spring (spring wheat, Triticum aestivum), buckwheat, wild (wild buckwheat, Polygonum convolvulus), wild mustard (Sinapis arvensis), oat, wild (wild oat, Avena fatua), radish, wild (wild radish, Raphanus raphanistrum), […]), barley, winter (winter barley, Hordeum vulgare), and wheat, winter (winter wheat, Triticum aestivum) were planted into a silt loam soil and treated preemergence with test chemicals formulated in a non-phytotoxic solvent mixture which included a surfactant. At the same time, these species were planted in pots containing Sunshine Redi-Earth® planting medium comprising spaghnum peat moss, vermiculite, starter nutrients and dolomitic limestone and treated with postemergence applications of the test chemicals formulated in the same manner. Plants ranged in height from 2 to 18 cm (1- to 4-leaf stage). Treated plants and controls were maintained in a controlled growth environment for 14 to 21 d after which time all species were compared to controls and visually evaluated. […] A dash (-) response means no test result.

chamomile = assay: Test D preemergence; type: in vivo, Matricaria inodora; conditions: for Plant response rating: Chamomile: scale 0 to 100
Excerpt: as §2

bluegrass = assay: Test D postemergence; type: in vivo, Poa annua; conditions: scale 0 to 100
Excerpt: as §2

wild mustard = assay: Test D postemergence; type: in vivo, Sinapis arvensis; conditions: scale 0 to 100
Excerpt: as §2

chickweed = assay: Test D preemergence; type: in vivo, Stellaria media; conditions: for Plant response rating: Chickweed: scale 0 to 100
Excerpt: as §2

wheat, spring = assay: Test D preemergence; type: in vivo, Triticum aestivum; conditions: for Plant response rating: Wheat, Spring: scale 0 to 100
Excerpt: as §2

wheat, winter = assay: Test D preemergence; type: in vivo, Triticum aestivum; conditions: for Plant response rating: Wheat, Winter: scale 0 to 100
Excerpt: as §2

johnsongrass = assay: Test C preemergence; type: in vivo, Sorghum halepense; conditions: for Plant response rating (scale of 0 to 100 where 0 is no effect and 100 is complete control): Johnsongrass, preemergence; for Johnsongrass plant response rating (0 to 100): Preemergence, visual rating after 13 to 15 d
Excerpt: (§3) Seeds of plant species selected from blackgrass (Alopecurus myosuroides), ryegrass, Italian (Italian ryegrass, Lolium multiflorum), wheat (winter wheat, Triticum aestivum), galium (catchweed bedstraw, Galium aparine), corn (Zea mays), crabgrass, large (large crabgrass, Digitaria sanguinalis), foxtail, giant, (giant foxtail, Setaria faberii), johnsongrass (Sorghum halepense), lambsquarters (Chenopodium album), morningglory (Ipomoea coccinea), nutsedge, yellow (yellow nutsedge, Cyperus esculentus), pigweed (Amaranthus retroflexus), ragweed (common ragweed, Ambrosia elatior), soybean (Glycine max), barnyardgrass (Echinochloa crus-galli), oilseed rape (Brassica napus), waterhemp (common waterhemp, Amaranthus rudis), and velvetleaf (Abutilon theophrasti) were planted into a blend of loam soil and sand and treated preemergence with test chemicals formulated in a non-phytotoxic solvent mixture which included a surfactant. At the same time, plants selected from these crop and weed species and also chickweed (common chickweed, Stellaria media), oat, wild (wild oat, Avena fatua), and kochia (Kochia scoparia), were planted in pots containing Sunshine Redi-Earth® planting medium comprising spaghnum peat moss, vermiculite, starter nutrients and dolomitic limestone and treated with postemergence applications of test chemicals formulated in the same manner. Plants ranged in height from 2 to 18 cm (1- to 4-leaf stage) for postemergence treatments. […] A dash (-) response means no test result.

velvetleaf = assay: Test C preemergence; type: in vivo, Abutilon theophrasti; conditions: for Velvetleaf plant response rating (0 to 100): Preemergence, visual rating after 13 to 15 d
Excerpt: as §3

waterhemp = assay: Test C preemergence; type: in vivo, Amaranthus rudis; conditions: for Waterhemp plant response rating (0 to 100): Preemergence, visual rating after 13 to 15 d
Excerpt: as §3

pigweed = assay: Test C preemergence; type: in vivo, Amaranthus retroflexus; conditions: for Plant response rating (scale of 0 to 100 where 0 is no effect and 100 is complete control): Pigweed, preemergence; for Pigweed plant response rating (0 to 100): Preemergence, visual rating after 13 to 15 d
Excerpt: as §3

[1] = 16 g ai/ha, 0 is no effect, 100 is complete control

SMILES: CCCn1nc(-c2ccc(F)cc2)nc1Cc1ccnc(C(F)(F)F)c1 [Compound 17, 4-[[3-(4-fluorophenyl)-1-propyl-1H-1,2,4-triazol-5-yl]methyl]-2-(trifluoromethyl)pyridine]
- pest or weed control at 125 g/ha (morningglory): 70%
- pest or weed control at 500 g/ha (morningglory): 90%
- pest or weed control at 125 g/ha (crabgrass, large): 90%
- pest or weed control at 500 g/ha (crabgrass, large): 90%

SMILES: CCn1nc(-c2ccc(F)cc2)nc1C(=O)c1ccnc(C(F)(F)F)c1 [Compound 19, [1-ethyl-3-(4-fluorophenyl)-1H-1,2,4-triazol-5-yl][2-(trifluoromethyl)-4-pyridinyl]methanone]
- pest or weed control at 125 g/ha (morningglory): 0%
- pest or weed control at 500 g/ha (morningglory): 0%
- pest or weed control at 125 g/ha (crabgrass, large): 0%
- pest or weed control at 500 g/ha (crabgrass, large): 0%

SMILES: COc1nc(-c2ccc(Cl)cc2)nn1Cc1ccnc(C(F)(F)F)c1 [Compound 28]
- Plant response rating (0 to 100), Blackgrass (blackgrass; [1]): 30
- Plant response rating: Blackgrass (blackgrass; 31 g ai/ha): 30
- Plant response rating: Blackgrass (blackgrass; 62 g ai/ha): 50
- Plant response rating: Blackgrass (blackgrass; 125 g ai/ha): 50
- Plant response rating (0 to 100), Chamomile (chamomile; [1]): 0
- Plant response rating: Chamomile (chamomile; 31 g ai/ha): 20
- Plant response rating: Chamomile (chamomile; 62 g ai/ha): 75
- Plant response rating: Chamomile (chamomile; 125 g ai/ha): 95
- Plant response rating: Bluegrass (bluegrass; 16 g ai/ha): 20
- Plant response rating: Bluegrass (bluegrass; 31 g ai/ha): 20
- Plant response rating: Bluegrass (bluegrass; 62 g ai/ha): 45
- Plant response rating: Bluegrass (bluegrass; 125 g ai/ha): 40
- Plant response rating: Mustard, Wild (wild mustard; 16 g ai/ha): 90
- Plant response rating: Mustard, Wild (wild mustard; 31 g ai/ha): 100
- Plant response rating: Mustard, Wild (wild mustard; 62 g ai/ha): 100
- Plant response rating: Mustard, Wild (wild mustard; 125 g ai/ha): 100
- Plant response rating (0 to 100), Chickweed (chickweed; [1]): 65
- Plant response rating: Chickweed (chickweed; 31 g ai/ha): 70
- Plant response rating: Chickweed (chickweed; 62 g ai/ha): 70
- Plant response rating: Chickweed (chickweed; 125 g ai/ha): 90
- Plant response rating (0 to 100), Wheat, Spring (wheat, spring; [1]): 10
- Plant response rating: Wheat, Spring (wheat, spring; 62 g ai/ha): 20
- Plant response rating: Wheat, Spring (wheat, spring; 125 g ai/ha): 25
- Plant response rating (0 to 100), Wheat, Winter (wheat, winter; [1]): 15
- Plant response rating: Wheat, Winter (wheat, winter; 62 g ai/ha): 25
- Plant response rating: Wheat, Winter (wheat, winter; 125 g ai/ha): 20

SMILES: CS(=O)(=O)c1nc(-c2ccc(F)cc2)nn1Cc1ccnc(C(F)(F)F)c1 [Compound 29, 4-[[3-(4-fluorophenyl)-5-(methylsulfonyl)-1H-1,2,4-triazole-1-yl]methyl]-2-(trifluoromethyl)pyridine]
- pest or weed control at 125 g/ha (morningglory): 0%
- pest or weed control at 500 g/ha (morningglory): 0%
- pest or weed control at 125 g/ha (crabgrass, large): 0%
- pest or weed control at 500 g/ha (crabgrass, large): 0%

SMILES: COc1nc(-c2ccccc2)nn1Cc1ccnc(C(F)(F)F)c1 [Compound 32]
- Plant response rating (scale of 0 to 100 where 0 is no effect and 100 is complete control) (johnsongrass; 125 g ai/ha): 30
- Plant response rating (scale of 0 to 100 where 0 is no effect and 100 is complete control) (johnsongrass; 250 g ai/ha): 60
- Johnsongrass plant response rating (0 to 100) (johnsongrass; 31 g ai/ha): 0
- Johnsongrass plant response rating (0 to 100) (johnsongrass; 62 g ai/ha): 0
- Velvetleaf plant response rating (0 to 100) (velvetleaf; 31 g ai/ha): 20
- Velvetleaf plant response rating (0 to 100) (velvetleaf; 62 g ai/ha): 10
- Plant response rating (scale of 0 to 100 where 0 is no effect and 100 is complete control) (velvetleaf; Velvetleaf, preemergence, 250 g ai/ha): 60
- Waterhemp plant response rating (0 to 100) (waterhemp; 31 g ai/ha): 90
- Waterhemp plant response rating (0 to 100) (waterhemp; 62 g ai/ha): 100
- Plant response rating (scale of 0 to 100 where 0 is no effect and 100 is complete control) (waterhemp; Waterhemp, preemergence, 250 g ai/ha): 100
- Plant response rating (scale of 0 to 100 where 0 is no effect and 100 is complete control) (pigweed; 125 g ai/ha): 100
- Plant response rating (scale of 0 to 100 where 0 is no effect and 100 is complete control) (pigweed; 250 g ai/ha): 100
- Pigweed plant response rating (0 to 100) (pigweed; 31 g ai/ha): 100
- Pigweed plant response rating (0 to 100) (pigweed; 62 g ai/ha): 100

From patent US10681909B2, “Herbicidal triazoles” (FMC Corporation, priority 2014, dated 2020)
